# According to ChEMBL document CHEMBL4507305, “Data for DCP probe TP-024” (2021):
# How the values were obtained:
# [1] = biological target: Phosphatidylinositol 4,5-bisphosphate 3-kinase catalytic subunit gamma isoform (Homo sapiens) (UniProt P48736); details: Compound concentration 1000.0 nM
# [2] = biological target: Mitogen-activated protein kinase 6 (Homo sapiens) (UniProt Q16659); details: Compound concentration 1000.0 nM
# [3] = test system: Phosphatidylinositol 4,5-bisphosphate 3-kinase catalytic subunit alpha isoform (Homo sapiens), P42336 [M1043I]; details: Compound concentration 1000.0 nM
# [4] = test system: Phosphatidylinositol 4,5-bisphosphate 3-kinase catalytic subunit alpha isoform (Homo sapiens), P42336 [I800L]; details: Compound concentration 1000.0 nM
# [5] = biological target: Ephrin type-B receptor 1 (Homo sapiens) (UniProt P54762); details: Compound concentration 1000.0 nM
# [6] = biological target: Serine/threonine-protein kinase 17B (Homo sapiens) (UniProt O94768); details: Compound concentration 1000.0 nM
# [7] = biological target: Serine/threonine-protein kinase D3 (Homo sapiens) (UniProt O94806); details: Compound concentration 1000.0 nM
# [8] = biological target: Sigma intracellular receptor 2 (Homo sapiens) (UniProt Q5BJF2); details: Compound concentration 10.0 uM
# [9] = biological target: Serine/threonine-protein kinase 26 (Homo sapiens) (UniProt Q9P289); details: Compound concentration 1000.0 nM
# [10] = biological target: STE20-like serine/threonine-protein kinase (Homo sapiens) (UniProt Q9H2G2); details: Compound concentration 1000.0 nM
# [11] = biological target: D(1B) dopamine receptor (Homo sapiens) (UniProt P21918); details: Compound concentration 10.0 uM
# [12] = test system: Proto-oncogene tyrosine-protein kinase receptor Ret (Homo sapiens), P07949 [V804L]; details: Compound concentration 1000.0 nM
# [13] = biological target: Casein kinase I isoform gamma-1 (Homo sapiens) (UniProt Q9HCP0); details: Compound concentration 1000.0 nM
# [14] = biological target: Mitogen-activated protein kinase kinase kinase kinase 1 (Homo sapiens) (UniProt Q92918); details: Compound concentration 1000.0 nM
# [15] = biological target: Ephrin type-B receptor 4 (Homo sapiens) (UniProt P54760); details: Compound concentration 1000.0 nM
# [16] = biological target: Rhodopsin kinase GRK1 (Homo sapiens) (UniProt Q15835); details: Compound concentration 1000.0 nM
# [17] = biological target: Dual specificity mitogen-activated protein kinase kinase 7 (Homo sapiens) (UniProt O14733); details: Compound concentration 1000.0 nM
# [18] = biological target: Serine/threonine-protein kinase 32A (Homo sapiens) (UniProt Q8WU08); details: Compound concentration 1000.0 nM
# [19] = biological target: Non-receptor tyrosine-protein kinase TYK2 (Homo sapiens) (UniProt P29597); details: Compound concentration 1000.0 nM
# [20] = biological target: Serine/threonine-protein kinase MRCK gamma (Homo sapiens) (UniProt Q6DT37); details: Compound concentration 1000.0 nM
# [21] = biological target: Calcium/calmodulin-dependent protein kinase type II subunit gamma (Homo sapiens) (UniProt Q13555); details: Compound concentration 1000.0 nM
# [22] = biological target: LIM domain kinase 1 (Homo sapiens) (UniProt P53667); details: Compound concentration 1000.0 nM
# [23] = biological target: Vascular endothelial growth factor receptor 1 (Homo sapiens) (UniProt P17948); details: Compound concentration 1000.0 nM
# [24] = biological target: Homeodomain-interacting protein kinase 4 (Homo sapiens) (UniProt Q8NE63); details: Compound concentration 1000.0 nM
# [25] = biological target: Casein kinase I isoform delta (Homo sapiens) (UniProt P48730); details: Compound concentration 1000.0 nM
# [26] = biological target: Casein kinase II subunit alpha (Homo sapiens) (UniProt P68400); details: Compound concentration 1000.0 nM
# [27] = biological target: Serine/threonine-protein kinase MARK2 (Homo sapiens) (UniProt Q7KZI7); details: Compound concentration 1000.0 nM
# [28] = biological target: Protein kinase C iota type (Homo sapiens) (UniProt P41743); details: Compound concentration 1000.0 nM
# [29] = biological target: Tyrosine-protein kinase Lyn (Homo sapiens) (UniProt P07948); details: Compound concentration 1000.0 nM
# [30] = biological target: G protein-coupled receptor kinase 3 (Homo sapiens) (UniProt P35626); details: Compound concentration 1000.0 nM
# [31] = biological target: Tyrosine-protein kinase Yes (Homo sapiens) (UniProt P07947); details: Compound concentration 1000.0 nM
# [32] = test system: Receptor-type tyrosine-protein kinase FLT3 (Homo sapiens), P36888 [D835H]; details: Compound concentration 1000.0 nM
# [33] = biological target: Sodium-dependent serotonin transporter (Homo sapiens) (UniProt P31645); details: Compound concentration 10.0 uM
# [34] = biological target: Focal adhesion kinase 1 (Homo sapiens) (UniProt Q05397); details: Compound concentration 1000.0 nM
# [35] = biological target: Ribosomal protein S6 kinase alpha-4 (Homo sapiens) (UniProt O75676); details: Compound concentration 1000.0 nM
# [36] = biological target: Angiopoietin-1 receptor (Homo sapiens) (UniProt Q02763); details: Compound concentration 1000.0 nM
# [37] = biological target: Leukocyte tyrosine kinase receptor (Homo sapiens) (UniProt P29376); details: Compound concentration 1000.0 nM
# [38] = test system: Leucine-rich repeat serine/threonine-protein kinase 2 (Homo sapiens), Q5S007 [G2019S]; details: Compound concentration 1000.0 nM
# [39] = biological target: Mitogen-activated protein kinase 15 (Homo sapiens) (UniProt Q8TD08); details: Compound concentration 1000.0 nM
# [40] = biological target: Tyrosine-protein kinase ABL1 (Homo sapiens) (UniProt P00519); details: Compound concentration 1000.0 nM
# [41] = biological target: Serine/threonine-protein kinase ICK (Homo sapiens) (UniProt Q9UPZ9); details: Compound concentration 1000.0 nM
# [42] = biological target: Maternal embryonic leucine zipper kinase (Homo sapiens) (UniProt Q14680); details: Compound concentration 1000.0 nM
# [43] = biological target: Tyrosine-protein kinase TXK (Homo sapiens) (UniProt P42681); details: Compound concentration 1000.0 nM
# [44] = biological target: Ankyrin repeat and protein kinase domain-containing protein 1 (Homo sapiens) (UniProt Q8NFD2); details: Compound concentration 1000.0 nM
# [45] = test system: Epidermal growth factor receptor (Homo sapiens), P00533 [L858R,T790M]; details: Compound concentration 1000.0 nM
# Casein kinase II subunit alpha (Homo sapiens), sequence (P68400 whole entry, looked up): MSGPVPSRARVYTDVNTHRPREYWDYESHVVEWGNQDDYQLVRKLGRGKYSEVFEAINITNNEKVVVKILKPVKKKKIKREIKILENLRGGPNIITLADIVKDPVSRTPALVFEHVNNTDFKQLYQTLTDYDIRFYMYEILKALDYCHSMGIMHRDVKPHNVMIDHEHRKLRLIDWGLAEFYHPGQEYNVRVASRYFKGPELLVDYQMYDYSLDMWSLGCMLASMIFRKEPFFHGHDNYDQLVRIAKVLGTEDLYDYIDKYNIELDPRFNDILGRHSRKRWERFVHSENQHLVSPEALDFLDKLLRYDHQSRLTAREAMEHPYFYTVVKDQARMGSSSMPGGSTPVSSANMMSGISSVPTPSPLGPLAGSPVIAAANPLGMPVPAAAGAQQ
# Sigma intracellular receptor 2 (Homo sapiens), sequence (Q5BJF2 whole entry): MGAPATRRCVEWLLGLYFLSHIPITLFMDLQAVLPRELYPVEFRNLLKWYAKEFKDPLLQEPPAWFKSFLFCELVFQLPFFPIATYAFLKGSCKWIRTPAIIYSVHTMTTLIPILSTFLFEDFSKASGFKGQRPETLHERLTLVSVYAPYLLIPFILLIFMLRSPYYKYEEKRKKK
# Serine/threonine-protein kinase ICK (Homo sapiens), sequence (Q9UPZ9 whole entry): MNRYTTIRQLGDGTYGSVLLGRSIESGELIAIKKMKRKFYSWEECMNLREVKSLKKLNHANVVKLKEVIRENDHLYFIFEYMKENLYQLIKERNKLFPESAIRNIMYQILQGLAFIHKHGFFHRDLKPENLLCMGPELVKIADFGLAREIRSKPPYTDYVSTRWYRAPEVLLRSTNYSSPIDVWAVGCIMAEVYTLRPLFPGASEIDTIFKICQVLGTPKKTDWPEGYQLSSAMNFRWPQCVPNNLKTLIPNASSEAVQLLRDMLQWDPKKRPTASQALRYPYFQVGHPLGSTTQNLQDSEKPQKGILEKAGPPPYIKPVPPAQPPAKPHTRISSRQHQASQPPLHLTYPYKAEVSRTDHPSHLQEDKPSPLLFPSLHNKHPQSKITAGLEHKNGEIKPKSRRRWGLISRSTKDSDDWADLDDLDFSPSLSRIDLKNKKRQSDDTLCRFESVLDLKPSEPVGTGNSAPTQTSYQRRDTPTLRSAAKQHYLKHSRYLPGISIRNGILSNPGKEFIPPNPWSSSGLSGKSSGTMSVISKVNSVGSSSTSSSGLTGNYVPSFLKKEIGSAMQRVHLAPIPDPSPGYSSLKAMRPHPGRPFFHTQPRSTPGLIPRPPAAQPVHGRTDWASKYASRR
# G protein-coupled receptor kinase 3 (Homo sapiens), sequence (P35626 whole entry): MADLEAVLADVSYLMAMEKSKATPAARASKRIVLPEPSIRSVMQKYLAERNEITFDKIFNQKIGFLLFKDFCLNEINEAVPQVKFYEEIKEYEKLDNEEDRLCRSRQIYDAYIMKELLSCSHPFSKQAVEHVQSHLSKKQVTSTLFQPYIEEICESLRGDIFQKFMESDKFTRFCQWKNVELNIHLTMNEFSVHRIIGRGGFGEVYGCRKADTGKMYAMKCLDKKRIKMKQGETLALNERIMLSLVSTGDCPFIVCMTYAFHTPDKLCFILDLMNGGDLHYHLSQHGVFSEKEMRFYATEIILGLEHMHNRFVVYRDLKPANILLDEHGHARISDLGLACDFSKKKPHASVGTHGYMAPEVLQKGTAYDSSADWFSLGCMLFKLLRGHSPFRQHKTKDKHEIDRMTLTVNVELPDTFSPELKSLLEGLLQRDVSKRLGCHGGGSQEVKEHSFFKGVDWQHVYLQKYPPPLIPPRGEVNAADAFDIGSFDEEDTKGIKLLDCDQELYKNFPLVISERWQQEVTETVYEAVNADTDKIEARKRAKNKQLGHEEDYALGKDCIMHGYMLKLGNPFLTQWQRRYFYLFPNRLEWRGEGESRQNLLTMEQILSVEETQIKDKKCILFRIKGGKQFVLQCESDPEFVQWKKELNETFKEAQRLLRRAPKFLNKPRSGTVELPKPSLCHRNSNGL
# Proto-oncogene tyrosine-protein kinase receptor Ret (Homo sapiens), P07949 [V804L], sequence (P07949 whole entry V804L, canonical isoform): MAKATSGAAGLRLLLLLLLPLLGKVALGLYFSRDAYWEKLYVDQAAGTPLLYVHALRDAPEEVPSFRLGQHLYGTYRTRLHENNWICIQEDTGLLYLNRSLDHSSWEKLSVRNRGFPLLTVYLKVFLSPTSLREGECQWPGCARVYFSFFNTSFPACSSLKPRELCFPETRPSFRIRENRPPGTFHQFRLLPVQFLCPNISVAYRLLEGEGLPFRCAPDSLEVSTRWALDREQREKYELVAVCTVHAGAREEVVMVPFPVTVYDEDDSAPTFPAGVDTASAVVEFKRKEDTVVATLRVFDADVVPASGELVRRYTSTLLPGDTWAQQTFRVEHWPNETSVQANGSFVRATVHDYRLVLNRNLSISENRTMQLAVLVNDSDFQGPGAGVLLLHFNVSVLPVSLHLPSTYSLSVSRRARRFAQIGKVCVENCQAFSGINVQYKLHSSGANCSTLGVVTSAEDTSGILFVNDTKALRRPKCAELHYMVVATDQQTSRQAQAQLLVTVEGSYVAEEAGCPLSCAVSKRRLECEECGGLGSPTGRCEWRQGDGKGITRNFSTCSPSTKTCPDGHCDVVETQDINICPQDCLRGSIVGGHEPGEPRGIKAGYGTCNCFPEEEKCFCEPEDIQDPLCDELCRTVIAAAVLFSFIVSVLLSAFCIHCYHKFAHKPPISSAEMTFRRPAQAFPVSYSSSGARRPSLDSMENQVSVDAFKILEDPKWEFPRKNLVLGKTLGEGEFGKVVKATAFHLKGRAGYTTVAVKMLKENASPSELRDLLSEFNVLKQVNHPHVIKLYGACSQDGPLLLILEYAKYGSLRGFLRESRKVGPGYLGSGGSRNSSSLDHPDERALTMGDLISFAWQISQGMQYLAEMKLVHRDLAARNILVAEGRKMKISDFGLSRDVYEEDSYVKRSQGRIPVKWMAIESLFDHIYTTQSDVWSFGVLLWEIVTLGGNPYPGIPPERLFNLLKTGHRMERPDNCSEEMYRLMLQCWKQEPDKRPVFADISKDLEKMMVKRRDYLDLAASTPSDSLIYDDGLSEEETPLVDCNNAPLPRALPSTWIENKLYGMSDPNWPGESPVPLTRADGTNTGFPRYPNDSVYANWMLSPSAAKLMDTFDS
# Serine/threonine-protein kinase 26 (Homo sapiens), sequence (Q9P289 2-416 limits assumed): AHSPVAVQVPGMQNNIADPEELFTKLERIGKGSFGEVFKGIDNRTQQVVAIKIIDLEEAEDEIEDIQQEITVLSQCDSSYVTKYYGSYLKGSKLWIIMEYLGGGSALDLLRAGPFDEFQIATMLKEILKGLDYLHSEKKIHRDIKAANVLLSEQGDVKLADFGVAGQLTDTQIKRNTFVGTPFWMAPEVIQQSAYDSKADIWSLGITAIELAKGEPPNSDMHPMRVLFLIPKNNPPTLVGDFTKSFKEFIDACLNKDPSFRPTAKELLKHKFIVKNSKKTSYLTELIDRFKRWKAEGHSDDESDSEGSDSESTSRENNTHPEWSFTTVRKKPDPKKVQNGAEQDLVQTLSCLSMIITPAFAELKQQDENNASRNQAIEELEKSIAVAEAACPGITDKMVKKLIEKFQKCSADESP
# Serine/threonine-protein kinase MARK2 (Homo sapiens), sequence (Q7KZI7 whole entry): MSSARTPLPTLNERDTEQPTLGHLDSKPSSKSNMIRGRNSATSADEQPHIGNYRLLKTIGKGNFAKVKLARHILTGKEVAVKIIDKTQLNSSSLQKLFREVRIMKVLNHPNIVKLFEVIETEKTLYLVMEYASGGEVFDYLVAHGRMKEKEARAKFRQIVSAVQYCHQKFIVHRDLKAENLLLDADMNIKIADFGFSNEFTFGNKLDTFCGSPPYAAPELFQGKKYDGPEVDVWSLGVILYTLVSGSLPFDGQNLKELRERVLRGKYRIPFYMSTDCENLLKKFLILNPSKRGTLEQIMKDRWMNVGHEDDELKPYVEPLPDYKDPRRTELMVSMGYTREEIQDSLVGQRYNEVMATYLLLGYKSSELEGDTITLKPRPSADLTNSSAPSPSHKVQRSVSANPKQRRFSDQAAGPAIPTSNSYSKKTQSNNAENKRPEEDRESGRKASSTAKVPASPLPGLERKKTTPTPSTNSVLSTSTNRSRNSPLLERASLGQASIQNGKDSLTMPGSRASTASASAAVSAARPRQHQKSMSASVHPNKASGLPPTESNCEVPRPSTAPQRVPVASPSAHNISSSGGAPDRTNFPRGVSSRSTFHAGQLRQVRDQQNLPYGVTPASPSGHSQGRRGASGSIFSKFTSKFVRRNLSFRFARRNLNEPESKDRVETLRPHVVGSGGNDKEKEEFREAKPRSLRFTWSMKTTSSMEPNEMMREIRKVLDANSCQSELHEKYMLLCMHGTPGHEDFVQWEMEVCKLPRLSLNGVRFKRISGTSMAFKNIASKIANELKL
# Serine/threonine-protein kinase 17B (Homo sapiens), sequence (O94768 whole entry): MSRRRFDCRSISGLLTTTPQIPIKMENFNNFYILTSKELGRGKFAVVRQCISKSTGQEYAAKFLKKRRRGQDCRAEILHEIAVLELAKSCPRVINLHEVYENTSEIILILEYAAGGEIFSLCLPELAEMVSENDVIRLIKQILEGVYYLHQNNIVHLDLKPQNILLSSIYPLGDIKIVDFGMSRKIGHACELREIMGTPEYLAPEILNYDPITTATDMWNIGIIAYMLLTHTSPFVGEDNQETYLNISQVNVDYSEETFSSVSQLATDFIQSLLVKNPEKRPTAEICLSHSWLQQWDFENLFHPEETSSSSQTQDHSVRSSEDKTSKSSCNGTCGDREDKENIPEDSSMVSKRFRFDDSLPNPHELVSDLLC
# Casein kinase I isoform gamma-1 (Homo sapiens), sequence (Q9HCP0 whole entry, looked up, canonical isoform): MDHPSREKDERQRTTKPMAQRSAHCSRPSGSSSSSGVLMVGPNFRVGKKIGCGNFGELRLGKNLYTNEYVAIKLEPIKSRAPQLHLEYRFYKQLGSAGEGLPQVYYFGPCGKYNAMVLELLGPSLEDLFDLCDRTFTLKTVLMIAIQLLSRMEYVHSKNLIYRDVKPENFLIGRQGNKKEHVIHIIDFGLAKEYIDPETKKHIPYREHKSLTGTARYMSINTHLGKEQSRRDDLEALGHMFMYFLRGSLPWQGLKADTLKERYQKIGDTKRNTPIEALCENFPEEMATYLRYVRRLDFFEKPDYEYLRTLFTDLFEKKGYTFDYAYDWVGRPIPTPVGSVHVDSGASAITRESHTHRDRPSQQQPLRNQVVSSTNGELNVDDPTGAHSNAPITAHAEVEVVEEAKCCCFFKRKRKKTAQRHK
smiles,measurement,setting,value
Cc1cc(-n2nc(Cc3cc(F)cc(C(F)(F)F)c3)nc2C)ccc1C(N)=O [TP-024],residual activity,[1],79%
same,residual activity,[2],100%
same,residual activity,[3],95%
same,residual activity,[4],70%
same,residual activity,[5],97%
same,residual activity,[6],81%
same,residual activity,[7],81%
same,inhibition,[8],-7.3%
same,residual activity,[9],100%
same,residual activity,[10],92%
same,inhibition,[11],14.3%
same,residual activity,[12],100%
same,residual activity,[13],100%
same,residual activity,[14],100%
same,residual activity,[15],100%
same,residual activity,[16],87%
same,residual activity,[17],100%
same,residual activity,[18],85%
same,residual activity,[19],100%
same,residual activity,[20],100%
same,residual activity,[21],100%
same,residual activity,[22],100%
same,residual activity,[23],100%
same,residual activity,[24],100%
same,residual activity,[25],100%
same,residual activity,[26],100%
same,residual activity,[27],89%
same,residual activity,[28],100%
same,residual activity,[29],100%
same,residual activity,[30],100%
same,residual activity,[31],100%
same,residual activity,[32],100%
same,inhibition,[33],-1.29%
same,residual activity,[34],100%
same,residual activity,[35],100%
same,residual activity,[36],92%
same,residual activity,[37],100%
same,residual activity,[38],100%
same,residual activity,[39],95%
same,residual activity,[40],100%
same,residual activity,[41],100%
same,residual activity,[42],100%
same,residual activity,[43],84%
same,residual activity,[44],100%
same,residual activity,[45],90%
Cc1nc(Cc2cccc(C(F)(F)F)c2)sc1-c1ccc(C(N)=O)nc1 [TP-024n],residual activity,[1],78%
same,residual activity,[2],100%
same,residual activity,[3],15%
same,residual activity,[4],56%
same,residual activity,[5],100%
same,residual activity,[6],79%
same,residual activity,[7],97%
same,inhibition,[8],-8.52%
same,residual activity,[9],83%
same,residual activity,[10],100%
same,inhibition,[11],13.8%
same,residual activity,[12],86%
same,residual activity,[13],97%
same,residual activity,[14],100%
same,residual activity,[15],100%
same,residual activity,[16],98%
same,residual activity,[17],100%
same,residual activity,[18],76%
same,residual activity,[19],100%
same,residual activity,[20],100%
same,residual activity,[21],93%
same,residual activity,[22],100%
same,residual activity,[23],100%
same,residual activity,[24],100%
same,residual activity,[25],75%
same,residual activity,[26],100%
same,residual activity,[27],69%
same,residual activity,[28],100%
same,residual activity,[29],95%
same,residual activity,[30],100%
same,residual activity,[31],100%
same,residual activity,[32],100%
same,inhibition,[33],-7.18%
same,residual activity,[34],95%
same,residual activity,[35],100%
same,residual activity,[36],80%
same,residual activity,[37],100%
same,residual activity,[38],82%
same,residual activity,[39],100%
same,residual activity,[40],98%
same,residual activity,[41],100%
same,residual activity,[42],100%
same,residual activity,[43],70%
same,residual activity,[44],95%
same,residual activity,[45],87%
